According to PubChem BioAssay (NCI):
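Grown in 96-well plates, cells were treated for 48 hours with each compound at five concentrations. Insufficient inhibition: endpoint recorded as highest concentration tested. GI50 is the concentration that inhibits growth by half. Definition used: TGI = concentration required for complete inhibition of growth.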

What was measured:
Assay in all cases: NCI tumour cell line growth inhibition, 48 h
UACC-62 melanoma = tested on: UACC-62 melanoma
CCRF-CEM leukemia = tested on: CCRF-CEM leukemia
HCT-116 colon = tested on: HCT-116 colon
NCI-H460 lung = tested on: NCI-H460 lung
M14 melanoma = tested on: M14 melanoma
EKVX NSCLC = tested on: EKVX NSCLC
DU-145 prostate = tested on: DU-145 prostate
CAKI-1 renal = tested on: CAKI-1 renal
ACHN renal = tested on: ACHN renal
NCI-H522 lung = tested on: NCI-H522 lung

For `Cc1cccc2c(=O)c3c(sc12)c(NCCCN)nc1ccccc13`, the GI50 (UACC-62 melanoma) was 1600 nM, the TGI (UACC-62 melanoma) was 3060 nM and the GI50 (CCRF-CEM leukemia) was 1320 nM. For the same compound, the TGI (CCRF-CEM leukemia) was 3130 nM, the GI50 (HCT-116 colon) was 1480 nM and the TGI (HCT-116 colon) was 2910 nM. The GI50 (NCI-H460 lung) was 825 nM, the TGI (NCI-H460 lung) was 2250 nM and the GI50 (M14 melanoma) was 1580 nM. It also gave a TGI (M14 melanoma) of 3130 nM, a GI50 (EKVX NSCLC) of 1580 nM and a TGI (EKVX NSCLC) of 3140 nM. It also gave a GI50 (DU-145 prostate) of 1390 nM, a TGI (DU-145 prostate) of 2780 nM and a GI50 (CAKI-1 renal) of 1180 nM. For the same compound, the TGI (CAKI-1 renal) was 2470 nM, the GI50 (ACHN renal) was 1390 nM and the TGI (ACHN renal) was 2710 nM. It also gave a GI50 (NCI-H522 lung) of 1570 nM and a TGI (NCI-H522 lung) of 3340 nM.
Work on `COc1cc(/C=C2\C[C@H]3[C@@H]4CC=C5C[C@@H](O)CC[C@]5(C)[C@H]4CC[C@]3(C)[C@H]2O)ccc1OCCN1CCCCC1` yielded a GI50 (UACC-62 melanoma) of 1730 nM, a TGI (UACC-62 melanoma) of 3450 nM and a GI50 (CCRF-CEM leukemia) of 370 nM. It also gave a TGI (CCRF-CEM leukemia) of 1880 nM, a GI50 (HCT-116 colon) of 254 nM and a TGI (HCT-116 colon) of 494 nM. The GI50 (NCI-H460 lung) was 1210 nM, the TGI (NCI-H460 lung) was 3620 nM and the GI50 (M14 melanoma) was 424 nM. It also gave a TGI (M14 melanoma) of 954 nM, a GI50 (EKVX NSCLC) of 1670 nM and a TGI (EKVX NSCLC) of 9620 nM. It also gave a GI50 (DU-145 prostate) of 1610 nM, a TGI (DU-145 prostate) of 4580 nM and a GI50 (CAKI-1 renal) of 1740 nM. It also gave a TGI (CAKI-1 renal) of 3360 nM, a GI50 (ACHN renal) of 706 nM and a TGI (ACHN renal) of 1370 nM. The GI50 (NCI-H522 lung) was 1600 nM and the TGI (NCI-H522 lung) was > 50000 nM.
In the case of `NC(CCl)=NCC12CC3CC(CC(C3)C1)C2`, the GI50 (UACC-62 melanoma) was 918 nM, the TGI (UACC-62 melanoma) was 4080 nM and the GI50 (CCRF-CEM leukemia) was 348 nM. For the same compound, the TGI (CCRF-CEM leukemia) was 3270 nM, the GI50 (HCT-116 colon) was 410 nM and the TGI (HCT-116 colon) was 2560 nM. The GI50 (NCI-H460 lung) was 440 nM, the TGI (NCI-H460 lung) was 4600 nM and the GI50 (M14 melanoma) was 1320 nM. For the same compound, the TGI (M14 melanoma) was 4390 nM, the GI50 (EKVX NSCLC) was 2230 nM and the TGI (EKVX NSCLC) was 21100 nM. It also gave a GI50 (DU-145 prostate) of 608 nM, a TGI (DU-145 prostate) of 3750 nM and a GI50 (CAKI-1 renal) of 426 nM. For the same compound, the TGI (CAKI-1 renal) was 2480 nM, the GI50 (ACHN renal) was 567 nM and the TGI (ACHN renal) was 11600 nM. For the same compound, the GI50 (NCI-H522 lung) was 391 nM and the TGI (NCI-H522 lung) was 2190 nM.
With `N[C@@H](Cc1c[nH]c2ccccc12)C(=O)NC1CCN(Cc2c[nH]c3ccc(Cl)cc23)CC1` the GI50 (UACC-62 melanoma) was 5560 nM, the TGI (UACC-62 melanoma) was 18300 nM and the GI50 (CCRF-CEM leukemia) was 2150 nM. The TGI (CCRF-CEM leukemia) was 4950 nM, the GI50 (HCT-116 colon) was 3870 nM and the TGI (HCT-116 colon) was 12600 nM. For the same compound, the GI50 (NCI-H460 lung) was 4710 nM, the TGI (NCI-H460 lung) was 16000 nM and the GI50 (M14 melanoma) was 6400 nM. The TGI (M14 melanoma) was 19500 nM, the GI50 (EKVX NSCLC) was 10900 nM and the TGI (EKVX NSCLC) was 25100 nM. For the same compound, the GI50 (DU-145 prostate) was 8760 nM, the TGI (DU-145 prostate) was 21200 nM and the GI50 (CAKI-1 renal) was 17800 nM. The TGI (CAKI-1 renal) was 47400 nM, the GI50 (ACHN renal) was 13400 nM and the TGI (ACHN renal) was 27700 nM. The GI50 (NCI-H522 lung) was 10000 nM and the TGI (NCI-H522 lung) was 22700 nM.
`C#Cc1cccc(Nc2nc(C)nc3cc(NC(=O)CCl)ccc23)c1` showed a GI50 (UACC-62 melanoma) of 1010 nM, a TGI (UACC-62 melanoma) of 3810 nM and a GI50 (CCRF-CEM leukemia) of 638 nM. The TGI (CCRF-CEM leukemia) was 2220 nM, the GI50 (HCT-116 colon) was 654 nM and the TGI (HCT-116 colon) was 2660 nM. For the same compound, the GI50 (NCI-H460 lung) was 3230 nM, the TGI (NCI-H460 lung) was 7190 nM and the GI50 (M14 melanoma) was 2550 nM. For the same compound, the TGI (M14 melanoma) was 6170 nM, the GI50 (EKVX NSCLC) was 3130 nM and the TGI (EKVX NSCLC) was 7620 nM. It also gave a GI50 (DU-145 prostate) of 3670 nM, a TGI (DU-145 prostate) of 7080 nM and a GI50 (CAKI-1 renal) of 2970 nM. For the same compound, the TGI (CAKI-1 renal) was 6230 nM, the GI50 (ACHN renal) was 2980 nM and the TGI (ACHN renal) was 6670 nM. The GI50 (NCI-H522 lung) was 454 nM and the TGI (NCI-H522 lung) was 920 nM.
For `CC(C)(C)c1cc[n+](C[n+]2ccc(C(C)(C)C)cc2)cc1`, the TGI (UACC-62 melanoma) was > 100000 nM, the TGI (CCRF-CEM leukemia) was > 100000 nM and the TGI (HCT-116 colon) was > 100000 nM. For the same compound, the TGI (NCI-H460 lung) was > 100000 nM, the TGI (M14 melanoma) was > 100000 nM and the TGI (EKVX NSCLC) was > 100000 nM. The TGI (DU-145 prostate) was > 100000 nM, the TGI (CAKI-1 renal) was > 100000 nM and the TGI (ACHN renal) was > 100000 nM. For the same compound, the TGI (NCI-H522 lung) was > 100000 nM.
